In patent publication US7351857B2, “Methods of using substituted tetralins and indanes” (Janssen Pharmaceutica N.V., priority 2002, dated 2008):

How the values were obtained:
PPARγ = target: T1, PPARγ (Homo sapiens, UniProt P37231); experiment: aP2 assay for PPAR gamma agonists (bDNA aP2 mRNA in preadipocytes); assay type: cell-based; conditions: unbracketed values; PPARγ standard FI = 70.3
T1 construct: Following the challenge of the preadipocytes, cells may be lysed with lysis buffer; endogenous in cells; host or cells: preadipocytes
T1 sequence (P37231 1-505): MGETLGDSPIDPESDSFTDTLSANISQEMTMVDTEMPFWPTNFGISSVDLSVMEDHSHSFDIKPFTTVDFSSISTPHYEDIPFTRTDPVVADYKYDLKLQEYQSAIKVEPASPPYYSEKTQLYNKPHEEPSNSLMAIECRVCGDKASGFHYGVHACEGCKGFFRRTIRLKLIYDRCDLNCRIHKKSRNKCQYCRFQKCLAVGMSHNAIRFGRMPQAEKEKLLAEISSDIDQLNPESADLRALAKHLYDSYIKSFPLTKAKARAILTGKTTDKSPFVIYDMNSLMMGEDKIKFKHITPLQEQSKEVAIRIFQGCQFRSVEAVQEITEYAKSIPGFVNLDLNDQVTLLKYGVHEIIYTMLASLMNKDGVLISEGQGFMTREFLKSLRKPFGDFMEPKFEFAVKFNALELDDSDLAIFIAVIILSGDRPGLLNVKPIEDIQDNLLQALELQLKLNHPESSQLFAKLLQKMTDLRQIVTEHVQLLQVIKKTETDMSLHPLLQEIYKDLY
Method: The procedure is described in detail in Burris et al., Molecular Endocrinology, 1999, 13:410, which is hereby incorporated by reference in its entirety, and aP2 assay results of agonist intrinsic activity may be presented as fold increase over vehicle in induction of aP2 mRNA production.
Twenty-four hours after the initial seeding of the 96-well plates by hand (around 20,000/well), the differentiation assay may be initiated. Medium may be removed and replaced with 150 μl of differentiation medium containing vehicle (DMSO) or test compounds. Cells may be returned to incubator for 24 hours culture. At the termination of the challenge, medium may be removed and 100 ul of lysis buffer may be added to initiate the bDNA aP2 mRNA assay. The branched DNA assay may be performed according to the manufacturer's protocol (Bayer Diagnostics; Emeryville, Calif.). Result may be expressed as the fold increase of aP2 mRNA production activated over vehicle controls. EC50's and Emax may be determined by non-linear regression with a sigmoidal fit curve.
Following the challenge of the preadipocytes, cells may be lysed with lysis buffer (Bayer Diagnostics) containing the aP2 oligonucleotides. After a 15 minute incubation at 53° C. or 30 minutes at 37° C. incubator, 70 ul of the lysis buffer from each well may be added to a corresponding capture well (preincubated with 70 ul of blocking buffer (Bayer Diagnostics)). The capture plate may be incubated overnight at 53° C. in a plate incubator (Bayer Diagnostics). After this incubation, the bDNA and labeled probes may be annealed as directed by the manufacturer. Following a 30-minute incubation with the luminescent alkaline phosphatase substrate, dioxitane, the luminescence may be quantitated in a Dynex MLX microtiter plate luminometer. Oligonucleotide probes designed to anneal to the aP2 mRNA and function in the bDNA mRNA detection system are designed with ProbeDesigner software (Bayer Diagnostics). This software package analyzes a target sequence of interest with a series of algorithms in order to determine which regions of the sequence can perform as locations for capture, label, or spacer probe annealing. The sequences of the oligonucleotides are as follows: […]

PPARδ = target: T2, PPARδ (Homo sapiens, UniProt Q03181); experiment: Transfection assay for PPARδ receptors (PPAR-Gal4 / Gal4-luciferase reporter in HEK293 cells); assay type: cell-based; conditions: for PPARδ FI (fold induction): unbracketed values, PPARδ standard FI = 36.1
T2 sequence (Q03181 171-441 limits assumed): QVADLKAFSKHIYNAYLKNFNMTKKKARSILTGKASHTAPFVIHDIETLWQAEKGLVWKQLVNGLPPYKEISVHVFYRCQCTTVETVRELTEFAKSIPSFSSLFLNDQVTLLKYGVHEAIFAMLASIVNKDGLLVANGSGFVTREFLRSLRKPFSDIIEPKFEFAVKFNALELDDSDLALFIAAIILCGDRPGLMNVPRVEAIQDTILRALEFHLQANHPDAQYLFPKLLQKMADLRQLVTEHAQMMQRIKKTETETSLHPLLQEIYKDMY
Method: HEK293 cells were grown in DMEM/F-12 Media supplemented with 10% FBS and glutamine (GIBCOBRL). The cells were co-transfected with DNA for PPAR-Gal4 receptor and Gal4-Luciferase Reporter using the DMRIE-C Reagent. On the following day, the DNA-containing medium were replaced with 5% Charcoal treated FBS growth medium. After six hours, cells were seeded in 96 well plate and incubated at 37° C. in CO2 incubator overnight. Cells were challenged by test compounds and incubated for 24 hours at 37° C. in 5% CO2 incubator. Luciferase activity was assayed using the Steady-Glo Luciferase Assay Kit from Promega. DMRIE-C Reagent was purchased from GIBCO Cat. No. 10459-014. OPTI-MEM I Reduced Serum Medium was purchased from GIBCO Cat. No. 31985. Steady-Glo Luciferase Assay Kit was obtained from Promega Part# E254B.

Compound	PPARγ FI (fold induction) (PPARγ)	PPARδ FI (fold induction) (PPARδ)	other results
CCN(C(=O)Nc1ccc(SC(F)(F)F)cc1)C1Cc2ccc(SC(C)(C)C(=O)O)cc2C1 (centres unmarked) [Example 4, 2-{2-[1-Ethyl-3-(4-trifluoromethylsulfanylphenyl)ureido]indan-5-ylsulfanyl}-2-methylpropionic acid]	3.7	–	–
CCCCCN(C(=O)Nc1ccc(-c2ccccc2)cc1)C1Cc2ccc(SC(C)(C)C(=O)O)cc2C1 (centres unmarked) [Example 12, 2-[2-(3-Biphenyl-4-yl-1-pentylureido)indan-5-ylsulfanyl]-2-methylpropionic acid]	11	–	–
CCCN(C(=O)Nc1ccc(OC)cc1)C1Cc2ccc(SC(C)(C)C(=O)O)cc2C1 (centres unmarked) [Example 32, 2-{2-[3-(4-Methoxyphenyl)-1-propylureido]indan-5-ylsulfanyl}-2-methylpropionic acid]	–	1.5	–
CCCCCCN(C(=O)Nc1ccc(C(C)C)cc1)C1Cc2ccc(SC(C)(C)C(=O)O)cc2C1 (centres unmarked) [Example 13, 2-{2-[3-(4-Isopropylphenyl)-1-(hexyl)ureido]indan-5-ylsulfanyl}-2-methylpropionic acid]	1.2	–	–
CCCCN(C(=O)Nc1ccc(SC(F)(F)F)cc1)C1Cc2ccc(SC(C)(C)C(=O)O)cc2C1 (centres unmarked) [Example 17, 2-Methyl-2-{2-[1-butyl-3-(4-trifluoromethylsulfanylphenyl)ureido]indan-5-ylsulfanyl}propionic acid]	0.43	–	–
C=CCCCN(C(=O)Nc1ccc(OC(F)(F)F)cc1)C1Cc2ccc(SC(C)(C)C(=O)O)cc2C1 (centres unmarked) [Example 19, 2-Methy-2-{2-[1-pent-4-enyl-3-(4-trifluoromethoxyphenyl)ureido]indan-5-ylsulfanyl}propionic acid]	–	1.4	–
CCCN(C(=O)Nc1ccc(OC(F)(F)F)cc1)C1Cc2ccc(SC(C)(C)C(=O)O)cc2C1 (centres unmarked) [Example 16, 2-Methyl-2-{2-[1-propyl-3-(4-trifluoromethoxyphenyl)ureido]indan-5-ylsulfanyl}propionic acid]	0.37	–	–
CCCN(C(=O)Nc1ccc(C(F)(F)F)cc1)C1Cc2ccc(SC(C)(C)C(=O)O)cc2C1 (centres unmarked) [Example 35, 2-Methyl-2-{2-[1-propyl-3-(4-trifluoromethylphenyl)ureido]indan-5-ylsulfanyl}-propionic acid]	–	5.6	–
CC(C)CCN(C(=O)Nc1ccc(C(C)C)cc1)C1Cc2ccc(SC(C)(C)C(=O)O)cc2C1 (centres unmarked) [Example 21, 2-{2-[3-(4-Isopropylphenyl)-1-(3-methylbutyl)ureido]indan-5-ylsulfanyl}-2-methylpropionic acid]	0.05	–	–
CCCN(C(=O)Nc1cc(C)cc(C)c1)C1Cc2ccc(SC(C)(C)C(=O)O)cc2C1 (centres unmarked) [Example 33, 2-{2-[3-(3,5-Dimethylphenyl)-1-propylureido]indan-5-ylsulfanyl}-2-methylpropionic acid]	–	0.8	–
CCN(C(=O)Nc1ccc(C(C)(C)C)cc1)C1CCc2cc(SC(C)(C)C(=O)O)c(OC)cc2C1 (centres unmarked) [Example 49, 2-{6-[3-(4-tert-Butylphenyl)1-ethylureido]-3-methoxy-5,6,7,8-tetrahydronaphthalen-2-ylsulfanyl}-2-methyl propionic acid]	–	–	EC50 (PPARδ; bracketed values): > 3 µM
CCN(C(=O)Nc1cccc(OC(F)(F)F)c1)C1Cc2ccc(SC(C)(C)C(=O)O)cc2C1 (centres unmarked) [Example 26, 2-{2-[1-Ethyl-3-(3-trifluoromethoxyphenyl)ureido]indan-5-ylsulfanyl}-2-methylpropionic acid]	–	2.1	–
CC(C)CCN(C(=O)Nc1ccc(OC(F)(F)F)cc1)C1Cc2ccc(SC(C)(C)C(=O)O)cc2C1 (centres unmarked) [Example 20, 2-Methyl-2-{2-[1-(3-methylbutyl)-3-(4-trifluoromethoxyphenyl)ureido]indan-5-ylsulfanyl}-2-methylpropionic acid]	0.44	–	–
CC(C)(Sc1ccc2c(c1)CC(NC(=O)Nc1ccc(OC(F)(F)F)cc1)C2)C(=O)O (centres unmarked) [Example 18, 2-Methyl-2-{2-[3-(4-trifluoromethoxyphenyl)ureido]indan-5-ylsulfanyl}propionic acid]	0.31	–	–
CC(C)(Sc1ccc2c(c1)CC(N(CCCC1CCCC1)C(=O)Nc1ccc(OC(F)(F)F)cc1)C2)C(=O)O (centres unmarked) [Example 28, 2-{2-[1-(3-Cyclopentylpropyl)-3-(4-trifluoromethoxyphenyl)ureido]indan-5-ylsulfanyl}-2-methylpropionic acid]	–	8.2	–
CCCCCN(C(=O)Nc1ccc2ccccc2c1)C1Cc2ccc(SC(C)(C)C(=O)O)cc2C1 (centres unmarked) [Example 39, 2-Methyl-2-[2-(3-naphthalen-2-yl-1-pentylureido)indan-5-ylsulfanyl]propionic acid]	–	9.3	–
CCCN(C(=O)Nc1ccc(OC(F)(F)F)cc1)C1CCc2ccc(SC(C)(C)C(=O)O)cc2C1 (centres unmarked) [Example 46, 2-Methyl-2-{7-[1-propyl-3-(4-trifluoromethoxyphenyl)ureido}-5,6,7,8-tetrahydronaphthalen-2-ylsulfanyl}propionic acid]	–	6.0	–
CCCCCN(C(=O)Nc1ccc(C(C)(C)C)cc1)C1Cc2ccc(SC(C)(C)C(=O)O)cc2C1 (centres unmarked) [Example 11, 2-{2-[3-(4-tert-butylphenyl)-1-(pentyl)ureido]indan-5-ylsulfanyl}-2-methylpropionic acid]	6.1	–	–
CCCCCCN(C(=O)Nc1ccc(SC(F)(F)F)cc1)C1Cc2ccc(SC(C)(C)C(=O)O)cc2C1 (centres unmarked) [Example 15, 2-Methyl-2-{2-[1-hexyl-3-(4-trifluoromethylsulfanylphenyl)ureido]indan-5-ylsulfanyl}propionic acid]	–	1.2	–
CCN(C(=O)Nc1ccc(OC(F)(F)F)c(Br)c1)C1Cc2ccc(SC(C)(C)C(=O)O)cc2C1 (centres unmarked) [Example 25, 2-{2-[3-(3-Bromo-4-trifluoromethoxyphenyl)-1-ethylureido]indan-5-ylsulfanyl}-2-methylpropionic acid]	–	4.5	–
CC(C)(Sc1ccc2c(c1)CC(N(CCCC1CCCC1)C(=O)Nc1ccccc1)C2)C(=O)O (centres unmarked) [Example 37, 2-{2-[1-(3-Cyclopentylpropyl)-3-phenylureido]indan-5-ylsulfanyl}-2-methylpropionic acid]	–	1.9	–
CCCCCN(C(=O)Nc1ccc(C(C)C)cc1)C1Cc2ccc(SC(C)(C)C(=O)O)cc2C1 (centres unmarked) [Example 10, 2-{2-[3-(4-Isopropylphenyl)-1-(pentyl)ureido]indan-5-ylsulfanyl}-2-methylpropionic acid]	5.1	–	–
CCN(C(=O)Nc1ccc(N(C)C)cc1)C1Cc2ccc(SC(C)(C)C(=O)O)cc2C1 (centres unmarked) [Example 7, 2-{2-[3-(4-Dimethylaminophenyl)-1-ethylureido]indan-5-ylsulfanyl}-2-methylpropionic acid]	–	0.8	–
